Test results as given in the NIST ThermoML archive (doi:10.1016/j.jct.2013.02.006).
± gives the expanded uncertainty stated by the source.

Experiment: activity coefficient (dimensionless); of the first substance listed, at infinite dilution; xn = mol fraction of the nth substance listed
Details: 101 kPa, Liquid, Chromatography, x1 = 0

Row | activity coefficient (333.2 K) | activity coefficient (348.2 K) | activity coefficient (363.2 K) | SMILES
1 | 0.606 ± 0.042 | 0.605 ± 0.042 | 0.618 ± 0.043 | CCO [ethanol] + CN1CCCC1=O
2 | 1.46 ± 0.1 | 1.29 ± 0.083 | 0.933 ± 0.059 | CC(C)O [propan-2-ol] + O=CN1CCOCC1
3 | 10.2 ± 0.7 | 8.75 ± 0.6 | 7.59 ± 0.52 | C1CCCC1 [cyclopentane] + O=CN1CCOCC1
4 | 3.85 ± 0.26 | 3.83 ± 0.26 | 3.68 ± 0.25 | C#CCCCCC [1-heptyne] + O=CN1CCOCC1
5 | 3.25 ± 0.22 | 3.19 ± 0.22 | 2.78 ± 0.19 | C#CCCCC [1-hexyne] + O=CN1CCOCC1
6 | 16 ± 1.1 | 14.6 ± 1 | 13.3 ± 0.91 | C=CCCCCC [1-heptene] + O=CN1CCOCC1
7 | 1.72 ± 0.12 | 1.79 ± 0.12 | 1.92 ± 0.13 | C#CCCCCC [1-heptyne] + CN1CCCC1=O
8 | 8.32 ± 0.57 | 8.11 ± 0.55 | 7.54 ± 0.51 | CCCCC [pentane] + CN1CCCC1=O
9 | 13.5 ± 0.92 | 11.6 ± 0.79 | 10.5 ± 0.72 | C=CCCCC [hex-1-ene] + O=CN1CCOCC1
10 | 0.852 ± 0.055 | 0.847 ± 0.054 | 0.706 ± 0.047 | CO [methanol] + O=CN1CCOCC1
11 | 3.46 ± 0.24 | 3.41 ± 0.23 | 3.21 ± 0.22 | CCc1ccccc1 [ethylbenzene] + O=CN1CCOCC1
12 | 6.37 ± 0.43 | 6.24 ± 0.43 | 6.28 ± 0.43 | C=CCCCCC [1-heptene] + CN1CCCC1=O
13 | 0.627 ± 0.043 | 0.639 ± 0.044 | 0.632 ± 0.044 | CC(C)O [propan-2-ol] + CN1CCCC1=O
14 | 1.47 ± 0.1 | 1.57 ± 0.1 | 1.77 ± 0.12 | C#CCCCC [1-hexyne] + CN1CCCC1=O
15 | 0.482 ± 0.037 | 0.556 ± 0.04 | 0.511 ± 0.038 | CO [methanol] + CN1CCCC1=O
16 | 4.75 ± 0.32 | 4.84 ± 0.33 | 4.99 ± 0.34 | C=CCCC [1-pentene] + CN1CCCC1=O
17 | 20.5 ± 1.4 | 18.4 ± 1.3 | 16.7 ± 1.1 | C=CCCCCCC [oct-1-ene] + O=CN1CCOCC1
18 | 0.537 ± 0.039 | 0.552 ± 0.04 | 0.548 ± 0.04 | CCCO [propan-1-ol] + CN1CCCC1=O
19 | 19.2 ± 1.3 | 17.3 ± 1.2 | 15.3 ± 1 | CCCCC [pentane] + O=CN1CCOCC1
20 | 5.15 ± 0.35 | 4.9 ± 0.3 | 4.65 ± 0.32 | C#CCCCCCC [1-octyne] + O=CN1CCOCC1
21 | 1.73 ± 0.12 | 1.83 ± 0.12 | 1.61 ± 0.11 | CCc1ccccc1 [ethylbenzene] + CN1CCCC1=O
22 | 13.8 ± 0.94 | 12.3 ± 0.84 | 11 ± 1 | C1CCCCC1 [cyclohexane] + O=CN1CCOCC1
23 | 2.56 ± 0.17 | 2.58 ± 0.18 | 2.38 ± 0.16 | C#CCCC [1-pentyne] + O=CN1CCOCC1

Row | activity coefficient (333.2 K) | activity coefficient (348.2 K) | activity coefficient (363.2 K) | SMILES
24 | 16.7 ± 1.1 | 14.9 ± 1 | 12 ± 0.82 | CCCCCCCCC [nonane] + CN1CCCC1=O
25 | 9.51 ± 0.65 | 9.19 ± 0.63 | 8.51 ± 0.58 | CCCCCC [hexane] + CN1CCCC1=O
26 | 39.5 ± 2.7 | 34.3 ± 2.4 | 30.6 ± 2.1 | CCCCCCCC [octane] + O=CN1CCOCC1
27 | 1.1 ± 0.07 | 1.14 ± 0.07 | 1.1 ± 0.07 | c1ccccc1 [benzene] + CN1CCCC1=O
28 | 5.51 ± 0.38 | 5.44 ± 0.37 | 5.57 ± 0.38 | C=CCCCC [hex-1-ene] + CN1CCCC1=O
29 | 17.7 ± 1.2 | 14.5 ± 0.99 | 11.9 ± 0.81 | C1CCCCCCC1 [cyclooctane] + O=CN1CCOCC1
30 | 1.2 ± 0.077 | 1.14 ± 0.073 | 0.914 ± 0.058 | CCO [ethanol] + O=CN1CCOCC1
31 | 6.32 ± 0.43 | 5.83 ± 0.4 | 5.41 ± 0.37 | C1CCCCC1 [cyclohexane] + CN1CCCC1=O
32 | 2.07 ± 0.14 | 2.15 ± 0.15 | 2.16 ± 0.15 | C#CCCCCCC [1-octyne] + CN1CCCC1=O
33 | 5.16 ± 0.35 | 4.68 ± 0.32 | 4.55 ± 0.31 | C1CCCC1 [cyclopentane] + CN1CCCC1=O
34 | 50.2 ± 3.4 | 43.5 ± 3 | 38.2 ± 2.6 | CCCCCCCCC [nonane] + O=CN1CCOCC1
35 | 15.4 ± 1.1 | 12.7 ± 0.87 | 10.5 ± 0.71 | C1CCCCCC1 [cycloheptane] + O=CN1CCOCC1
36 | 8.23 ± 0.56 | 7.62 ± 0.52 | 6.06 ± 0.41 | C1CCCCCCC1 [cyclooctane] + CN1CCCC1=O
37 | 24.6 ± 1.7 | 21.5 ± 1.5 | 19.6 ± 1.3 | CCCCCC [hexane] + O=CN1CCOCC1
38 | 1.27 ± 0.08 | 1.41 ± 0.09 | 1.63 ± 0.11 | C#CCCC [1-pentyne] + CN1CCCC1=O
39 | 1.25 ± 0.08 | 1.15 ± 0.073 | 0.913 ± 0.058 | CCCO [propan-1-ol] + O=CN1CCOCC1
40 | 31.3 ± 2.1 | 27.5 ± 1.9 | 25.9 ± 1.8 | CCCCCCC [heptane] + O=CN1CCOCC1
41 | 1.91 ± 0.13 | 1.82 ± 0.12 | 1.81 ± 0.12 | c1ccccc1 [benzene] + O=CN1CCOCC1
42 | 13.8 ± 0.94 | 13.2 ± 0.9 | 10.6 ± 0.72 | CCCCCCCC [octane] + CN1CCCC1=O
43 | 8.39 ± 0.57 | 7.6 ± 0.52 | 6.7 ± 0.46 | C=CCCCCCC [oct-1-ene] + CN1CCCC1=O
44 | 7.51 ± 0.51 | 6.71 ± 0.46 | 6.8 ± 0.46 | C1CCCCCC1 [cycloheptane] + CN1CCCC1=O
45 | 11.4 ± 0.78 | 10.7 ± 0.73 | 10 ± 0.68 | CCCCCCC [heptane] + CN1CCCC1=O
46 | 9.97 ± 0.68 | 9.43 ± 0.64 | 8.61 ± 0.59 | C=CCCC [1-pentene] + O=CN1CCOCC1

Row | SMILES | activity coefficient (333.2 K) | activity coefficient (348.2 K) | activity coefficient (363.2 K)
47 | Cc1ccccc1 [toluene] + CN1CCCC1=O | 1.39 ± 0.09 | 1.35 ± 0.09 | 1.42 ± 0.09
48 | Cc1ccccc1 [toluene] + O=CN1CCOCC1 | 2.71 ± 0.18 | 4.04 ± 1.5 | 2.55 ± 0.17
